Earlier results in article PMC2765482 (Journal of medicinal chemistry, 2009).
Marks after values point to notes of the source that are not given here.

How the values were obtained:
[1] = tested on: vancomycin-sensitive bacteria and vancomycin-resistant Enterococci (VRE); settings: against vancomycin-sensitive bacteria and VRE; ref [9]
[2] = versus vancomycin; ref [11]
[3] = tested on: Staphylococcus aureus strain ATCC 25923 (vancomycin-sensitive); settings: vancomycin-sensitive strain ATCC 25923; ref [18b] (text: ref [4],[18])
[4] = tested on: N,N′-Ac2-L-Lys-D-Ala-D-Ala (2); settings: ligand N,N′-Ac2-L-Lys-D-Ala-D-Ala; ref [4]
[5] = tested on: Enterococcus faecalis strain BM4166 (vancomycin-resistant, VanA); settings: ref [18b]
[6] = tested on: Enterocococci bacterial strains, VanA and VanB; settings: VanA and VanB resistant versus sensitive; ref [1d,k]
[7] = tested on: N,N′-Ac2-L-Lys-D-Ala-D-Lac (3); settings: for Association Constants 3 (Ka): ligand N,N′-Ac2-L-Lys-D-Ala-D-Lac, ref [4]

Substance | more active than vancomycin [1] | enhancement of antimicrobial properties [2] | MIC S. aureus [3] | Association Constants 2 (Ka) [4] | MIC E. faecalis [5] | drop in antimicrobial activity [6] | reduction of affinity for the ligand on D-Ala to D-Lac modification (NH→O) ([7]; D-Ala-D-Lac versus D-Ala-D-Ala ligand, ref [1d,k]) | Association Constants 3 (Ka) [7]
Chlorobiphenyl vancomycin | ca. 100 fold |  |  |  |  |  |  | 
N-demethylvancomycin |  | 2 fold |  |  |  |  |  | 
Vancomycin [Compound 1] |  |  | 1.25 ^e µg/mL | 2.0 ^f ×10^5 M^−1 | 2000 ^e µg/mL | 1000 fold | 1000 fold | 1.8 ^f ×10^2 M^−1
vancomycin aglycon [Compound 5] |  |  | 0.625 ^e µg/mL | 1.7 ^f ×10^5 M^−1 | 640 ^e µg/mL |  |  | 1.2 ^f ×10^2 M^−1
